According to publication PMC12587552, “A nitrogen-containing diphyllin derivative C156-P1 exhibited broad-spectrum antiviral activity against Flaviviridae viruses by preventing endosomal acidification” (Antimicrobial Agents and Chemotherapy, 2025):
Like-named read-outs stand apart in the source and are kept apart here.

Tests used:
[1] = tested on: HSV-1-eGFP; assay: microbe, parasite or virus in culture; type: cell-based, herpes simplex virus type 1; conditions: Human alphaherpesvirus 1, A549, 48 h, read-out: EC50 against HSV-1-eGFP
[2] = tested on: HUVEC cells; conditions: human
[3] = tested on: ZIKV, JEV, and YFV; assay: organism not typed; type: cell-based; conditions: read-out: EC50 against ZIKV, JEV, and YFV, bound stated
[4] = tested on: VSV-eGFP; assay: microbe, parasite or virus in culture; type: cell-based; conditions: Vesicular stomatitis virus, A549, 24 h, read-out: EC50 against VSV-eGFP
[5] = tested on: DENV-2; assay: DENV-2 infection in AG129 mice; type: in vivo; conditions: 0.2 mg/kg i.p.
[6] = tested on: Ad5-eGFP; type: cell-based, adenovirus type 5
[7] = tested on: JEV; assay: organism not typed; type: cell-based, JEV strain SA14-14-2; conditions: read-out: EC50 against JEV
[8] = tested on: DENV-1; assay: microbe, parasite or virus in culture; type: cell-based, DENV-1 clone D19044_7M; conditions: Dengue virus, read-out: EC50 against DENV-1
[9] = target: V-ATPase (Homo sapiens, UniProt Q9Y487); assay: ATPase activity assay on lysate of treated cells; type: cell-based; conditions: A549 cells treated 24 h; C156-P1 100 nM or 1000 nM, PHY34 100 nM, Baf-A1 100 nM; 2 µg total cell protein
[10] = tested on: DENV-2; assay: microbe, parasite or virus in culture; conditions: Dengue virus
[11] = in vitro; conditions: African green monkey
[12] = tested on: DENV-2; conditions: for SI (ratio of CC50 to EC50): DENV-2
[13] = tested on: SeV; type: cell-based, Sendai virus
[14] = tested on: IFN-I response / TLR3; type: cell-based, human; conditions: A549 cells, DENV-2 MOI = 2, 50 nM, 12-48 hpi
Procedure: Fig 6 C156-P1 restricted DENV-2 release from the endosome into the cytoplasm by suppressing the ATP6V0A2 protein. (A and C) A549 cells were infected with DENV-2 (MOI = 2) and treated with C156-P1 (50 nM), and the cells were harvested at 12, 24, 36, and 48 hpi. The mRNA levels of IFNB1, IFIT1, ISG15, OAS1, and TLR3 were quantitated by RT-qPCR. (B) A549 cells were infected with DENV-2 (MOI = 2) and incubated with C156-P1 (50 nM) for 24 h, after which the cell lysates were analyzed by Western blot (left panel), and band density analysis was performed (right panel). […] The intensity of FITC staining was determined using a CytoFLEX flow cytometer (left panel), and the mean fluorescence intensity (MFI) was calculated (right panel). […] The colocalization of E and Rab7A proteins was analyzed using Pearson’s correlation coefficients with the JACoP plugin for ImageJ software. […] (F) A549 cells were treated with DMSO, C156-P1 (100 nM), or PHY34 (100 nM) for 48 h, and ATP6V0A2 mRNA levels were quantified by RT-qPCR. […] The intensity of FITC staining was determined by a flow cytometer (left panel), and the MFI was calculated (right panel). […] The DENV-2 NS3 protein was determined by Western blot. […] The levels of ATP6V0A2 mRNA, intracellular viral RNA, DENV-2 NS3 protein, and extracellular virus titer were assessed at 48 hpi. […]

V-ATPase, sequence (Q9Y487 whole entry, looked up): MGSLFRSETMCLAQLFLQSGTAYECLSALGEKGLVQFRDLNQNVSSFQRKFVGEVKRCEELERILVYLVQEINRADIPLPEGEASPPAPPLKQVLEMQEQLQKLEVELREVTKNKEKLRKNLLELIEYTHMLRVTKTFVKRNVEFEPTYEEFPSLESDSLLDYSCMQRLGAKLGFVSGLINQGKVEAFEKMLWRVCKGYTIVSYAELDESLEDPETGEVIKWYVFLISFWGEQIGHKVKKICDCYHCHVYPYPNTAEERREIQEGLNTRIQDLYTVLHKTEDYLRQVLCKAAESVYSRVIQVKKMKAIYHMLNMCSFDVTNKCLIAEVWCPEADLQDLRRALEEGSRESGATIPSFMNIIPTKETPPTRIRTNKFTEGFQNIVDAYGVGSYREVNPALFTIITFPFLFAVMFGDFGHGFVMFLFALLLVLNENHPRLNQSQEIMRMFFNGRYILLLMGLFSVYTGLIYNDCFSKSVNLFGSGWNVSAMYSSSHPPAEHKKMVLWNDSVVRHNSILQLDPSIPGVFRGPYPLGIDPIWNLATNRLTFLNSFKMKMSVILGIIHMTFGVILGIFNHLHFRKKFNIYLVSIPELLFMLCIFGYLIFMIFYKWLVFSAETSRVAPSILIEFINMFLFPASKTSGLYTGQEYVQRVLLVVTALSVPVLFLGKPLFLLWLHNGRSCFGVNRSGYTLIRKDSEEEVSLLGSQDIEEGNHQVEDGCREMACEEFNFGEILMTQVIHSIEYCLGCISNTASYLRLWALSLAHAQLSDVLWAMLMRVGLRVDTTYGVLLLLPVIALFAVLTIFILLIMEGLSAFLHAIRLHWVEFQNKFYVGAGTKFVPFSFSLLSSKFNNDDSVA

COc1cc2c(OCC#N)c3c(c(-c4ccc5c(c4)OCO5)c2cc1OC)C(=O)OC3 [Compound C156-P1]
EC50 [1]: 6.21 nM | Concentration tolerable for cytotoxicity [2]: < 62.5 nM | EC50 [3]: < 6 nM | EC50 [4]: 9.27 nM | Body weight of DENV-2-infected mice [5]: mitigated the decline in body weight | DENV-2 RNA load in blood ([5]; days 3, 5, and 7 post-infection, RT-qPCR): markedly decreased DENV-2 in the blood | Survival rate ([5]; DENV-2 1 × 10^6 PFU i.p., until day 15): 60% | Mean fluorescence intensity (MFI) of Ad5-eGFP within the cells [6]: slightly increased | Number of Ad5-eGFP-positive cells versus DMSO [6]: no significant difference | EC50 ([7]; A549, 48 h): 2.63 nM | EC50 ([7]; Vero, 48 h): 2.84 nM | EC50 ([8]; DENV1, A549, 48 h): 8.38 nM | EC50 ([8]; DENV1, Vero, 48 h): 5.76 nM | V-ATPase activity [9]: significantly reduced V-ATPase activity | EC50 ([10]; DENV2, A549, 48 h, read-out: EC50 against DENV-2): 1.36 nM | EC50 ([10]; DENV2, HUVEC, 48 h, read-out: EC50 against DENV-2): 1.28 nM | EC50 ([10]; DENV2, Huh-7, 48 h, read-out: EC50 against DENV-2): 4.45 nM | EC50 ([10]; DENV2, Vero, 48 h, read-out: EC50 against DENV-2): 3.78 nM | EC50 ([10]; DENV2, read-out: EC50 against DENV-2, bound stated in text): < 5 nM | CC50 [11]: 431 nM | SI (ratio of CC50 to EC50) ([12]; A549 cells): 292.65 | Extracellular DENV-2 viral titers versus DMSO ([12]; A549 cells, MOI = 2, 50 nM, 24, 36, and 48 hpi, focus-forming assay): significantly decreased | DENV-2 infection (NS3 protein, Western blot) ([12]; A549 cells, MOI = 2, 48 h, indicated concentrations): decreased with increasing concentrations of C156-P1 | SI (ratio of CC50 to EC50) ([12]; HUVEC cells): 142.42 | SI (ratio of CC50 to EC50) ([12]; Huh7 cells): 110.09 | SI (ratio of CC50 to EC50) ([12]; Vero cells): 113.94 | Inhibition of SeV infection (viral NP mRNA) [13]: did not inhibit SeV infection | TLR3 mRNA expression induced by DENV-2 [14]: significantly reduced the expression of TLR3 mRNA | mRNA levels of IFNB1 and ISGs (IFIT1, ISG15, OAS1) induced by DENV-2 [14]: apparently suppressed
